Measured values published in ChEMBL document CHEMBL1201862, “PubChem BioAssay data set” (2004).
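A five-concentration, 48-hour dose response in 96-well plates underlies each endpoint, interpolated linearly between surrounding concentrations. GI50: concentration for 50% inhibition of growth.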 Active and inactive are the calls of the source. Rule as the data show it: active = GI50 up to about 1.1 µM and inactive = higher.

What was measured:
Experiment in all cases: NCI-60 cell line screen, 48 h
A549 = test system: A549
NCI-H23 = test system: NCI-H23
UO-31 = test system: UO-31
HOP-92 = test system: HOP-92
SK-MEL-2 = test system: SK-MEL-2
SW-620 = test system: SW-620
Malme-3M = test system: Malme-3M
LOX IMVI = test system: LOX IMVI
SNB-19 = test system: SNB-19
IGROV-1 = test system: IGROV-1
TK-10 = test system: TK-10
NCI-H522 = test system: NCI-H522
SK-OV-3 = test system: SK-OV-3

Measured: GI50

N#CC(/C(CCC(=O)Nc1ccc(Cl)cc1)=N/NC(=O)c1cc2ccccc2cc1O)c1ccccc1 (stereo not given)
inactive: A549 40.8 µM | NCI-H23 39.3 µM | UO-31 36.8 µM | HOP-92 40.9 µM | SK-MEL-2 19.7 µM | SW-620 50.4 µM | Malme-3M 50 µM | LOX IMVI 14.5 µM | SNB-19 47.9 µM | IGROV-1 31.7 µM | TK-10 56.5 µM

COc1ccc2c(c1)Oc1cc(O)ccc1[C@H]2c1ccccc1C(=O)NC(C)c1ccccc1 (stereo not given in full)
inactive: A549 13.2 µM | NCI-H23 15.5 µM | UO-31 10.9 µM | SK-MEL-2 21.5 µM | SW-620 17.1 µM | Malme-3M 20.4 µM | LOX IMVI 16.9 µM | SNB-19 17.6 µM | IGROV-1 15.1 µM | NCI-H522 12 µM | TK-10 24.2 µM | SK-OV-3 21 µM

COC(=O)C1=NC(=S)NC(c2ccccc2)C1c1nc2ccccc2s1 (stereo not given)
inactive: A549 > 100 µM | NCI-H23 > 100 µM | UO-31 > 100 µM | HOP-92 > 100 µM | SK-MEL-2 > 100 µM | SW-620 > 100 µM | Malme-3M > 100 µM | SNB-19 > 100 µM | IGROV-1 > 100 µM | TK-10 > 100 µM | SK-OV-3 > 100 µM

CCCC(=O)N[C@H]1C2C3CC4C5CC(C42)C1(C)C53 (stereo not given in full)
inactive: A549 > 100 µM | UO-31 > 100 µM | HOP-92 > 100 µM | SK-MEL-2 > 100 µM | SW-620 > 100 µM | Malme-3M > 100 µM | LOX IMVI > 100 µM | SNB-19 > 100 µM | IGROV-1 > 100 µM | NCI-H522 > 100 µM | TK-10 > 100 µM | SK-OV-3 > 100 µM

O=C1NC(Cc2ccc(O)cc2)C(=O)N2CCCC12 (stereo not given)
inactive: A549 > 100 µM | UO-31 > 100 µM | HOP-92 > 100 µM | SK-MEL-2 > 100 µM | SW-620 > 100 µM | Malme-3M > 100 µM | LOX IMVI > 100 µM | SNB-19 > 100 µM | IGROV-1 > 100 µM | NCI-H522 > 100 µM | TK-10 > 100 µM | SK-OV-3 > 100 µM

O=C(/C=C/c1ccco1)c1ccc(NCc2nc3ccccc3[nH]2)cc1
inactive: NCI-H23 13.5 µM | UO-31 13.8 µM | HOP-92 12.2 µM | SK-MEL-2 19.1 µM | SW-620 16 µM | Malme-3M 19 µM | LOX IMVI 12.2 µM | SNB-19 15.6 µM | IGROV-1 18.1 µM | NCI-H522 9.62 µM | TK-10 17.9 µM | SK-OV-3 18.3 µM

N#CC(C#N)=C1NC(=O)C(c2ccccc2)C(=O)N1 (stereo not given)
inactive: A549 > 100 µM | NCI-H23 > 100 µM | UO-31 > 100 µM | HOP-92 > 100 µM | SW-620 > 100 µM | Malme-3M > 100 µM | LOX IMVI > 100 µM | SNB-19 > 100 µM | IGROV-1 > 100 µM | NCI-H522 > 100 µM | TK-10 > 100 µM | SK-OV-3 > 100 µM

O=C(NCCCCCCNC(=O)OCCSCCn1cc(C(=O)NC(=O)OCc2ccccc2)c(=O)[nH]c1=O)OCCSCCn1cc(C(=O)NC(=O)OCc2ccccc2)c(=O)[nH]c1=O
inactive: A549 > 100 µM | NCI-H23 > 100 µM | UO-31 55.8 µM | HOP-92 32.1 µM | SK-MEL-2 > 100 µM | SW-620 > 100 µM | Malme-3M > 100 µM | LOX IMVI > 100 µM | SNB-19 > 100 µM | IGROV-1 > 100 µM | NCI-H522 > 100 µM | TK-10 > 100 µM

O=c1[nH]c(=O)n([C@H]2C[C@@H](CO)[C@@H](O)C2)cc1I
inactive: A549 > 100 µM | NCI-H23 > 100 µM | UO-31 > 100 µM | HOP-92 > 100 µM | SK-MEL-2 > 100 µM | SW-620 > 100 µM | Malme-3M > 100 µM | LOX IMVI > 100 µM | SNB-19 > 100 µM | IGROV-1 > 100 µM | NCI-H522 > 100 µM | TK-10 > 100 µM | SK-OV-3 > 100 µM

O=C(O)CCC(=O)Oc1ccc(O)c2c1CCCC2=O
inactive: A549 > 100 µM | NCI-H23 > 100 µM | UO-31 > 100 µM | SK-MEL-2 > 100 µM | SW-620 > 100 µM | Malme-3M > 100 µM | LOX IMVI > 100 µM | SNB-19 > 100 µM | IGROV-1 > 100 µM | NCI-H522 66.5 µM | TK-10 > 100 µM | SK-OV-3 > 100 µM

CC[C@@H]1OC2(C)CC(S(=O)(=O)c3ccccc3O)CC1O2 (stereo not given in full)
inactive: A549 > 100 µM | NCI-H23 > 100 µM | UO-31 > 100 µM | HOP-92 > 100 µM | SK-MEL-2 > 100 µM | SW-620 > 100 µM | Malme-3M > 100 µM | SNB-19 > 100 µM | IGROV-1 > 100 µM | NCI-H522 > 100 µM | SK-OV-3 > 100 µM

C[C@H]1CC[P+](Cc2ccccc2)(c2ccccc2)C1 (stereo not given in full)
inactive: A549 > 100 µM | NCI-H23 > 100 µM | UO-31 > 100 µM | SK-MEL-2 > 100 µM | SW-620 > 100 µM | Malme-3M 30.3 µM | LOX IMVI 71.4 µM | SNB-19 > 100 µM | IGROV-1 64.7 µM | NCI-H522 76.7 µM | TK-10 > 100 µM | SK-OV-3 > 100 µM

Cc1ccc(-n2nc(C(OC3OC(CO)C(O)C(O)C3O)C(O)CO)c3nc4cc(C)c(C)cc4nc32)cc1 (stereo not given)
inactive: NCI-H23 > 100 µM | UO-31 > 100 µM | Malme-3M > 100 µM | LOX IMVI > 100 µM | SNB-19 > 100 µM | NCI-H522 > 100 µM | TK-10 > 100 µM | SK-OV-3 > 100 µM

CC1(C)OCC([C@H]2CC23SCCCS3)O1 (stereo not given in full)
inactive: A549 > 100 µM | NCI-H23 > 100 µM | UO-31 > 100 µM | HOP-92 51.8 µM | SK-MEL-2 > 100 µM | Malme-3M > 100 µM | SNB-19 > 100 µM | IGROV-1 > 100 µM | NCI-H522 > 100 µM | TK-10 > 100 µM | SK-OV-3 > 100 µM

COc1ccc2nc(-c3ccc(O)cc3)ccc2c1
inactive: A549 > 100 µM | NCI-H23 > 100 µM | UO-31 > 100 µM | HOP-92 > 100 µM | SW-620 > 100 µM | Malme-3M > 100 µM | LOX IMVI > 100 µM | SNB-19 > 100 µM | IGROV-1 > 100 µM | NCI-H522 > 100 µM | TK-10 > 100 µM | SK-OV-3 > 100 µM

C[C@]12CCC(=O)C=C1CC[C@@H]1[C@@H]2C(=O)C[C@@]2(C)[C@H]1CC[C@]2(O)C(=O)CO [CORTISONE]
inactive: A549 > 100 µM | NCI-H23 > 100 µM | UO-31 > 100 µM | HOP-92 > 100 µM | SK-MEL-2 > 100 µM | SW-620 > 100 µM | Malme-3M > 100 µM | SNB-19 > 100 µM | IGROV-1 > 100 µM | NCI-H522 > 100 µM | TK-10 > 100 µM | SK-OV-3 > 100 µM
